Patent US20140057881A1, “Composition for the Treatment of Skin Conditions” (priority 2010, published 2014)
Counter-ions that a name gives are not always drawn.

Key:
Assay type in all cases: in vivo, human
Conditions in all cases: patient history before treatment with Example 1
[1] = Case 7: topical treatment of a person
Source text: A person with several year history of an itchy rash on the dorsum of their right foot presented (see FIG. 7A). They had previously tried many creams including various antifungal treatments, antibiotics and steroids, Particularly, they had tried Kenacomb™ (Triamcinolone acetonide, nystatin, gramicidin, neomycin); Mometasone Furoate 0.1% (Elocon™); Terbinafine Hydrochloride 1.0% (Lamisil™); Clotrimazole (sold under the trade name Canestan™) and Mupirocin (2% w/w) (sold under the trade name Bactroban™). […] There were areas of broken skin with scattered scab formation.
A diagnosis of chronic dermatitis with lichenification was made and treatment commenced with the composition of Example 1.
In less than one week the rash had disappeared (FIG. 7B).

[2] = Case 1: topical treatment of a person
Source text: A diagnosis of periorbital dermatitis with lichenification was made and treatment using the formulation of Example 1 commenced.

[3] = Case 8: topical treatment of a child

| Compound | outcome of previously tried treatments [1] | outcome of previously used treatments [2] | outcome of previously tried products [3] |
| --- | --- | --- | --- |
| C[C@@H]1C[C@H]2[C@@H]3CCC4=CC(=O)C=C[C@]4(C)[C@@]3(Cl)[C@@H](O)C[C@]2(C)[C@@]1(OC(=O)c1ccco1)C(=O)CCl [Mometasone Furoate 0.1%, Mometasone Furoate] | None of the treatments gave them any long term results | no long term improvement |  |
| C/C(=C\C(=O)OCCCCCCCCC(=O)O)C[C@@H]1OC[C@H](C[C@@H]2O[C@H]2[C@@H](C)[C@H](C)O)[C@@H](O)[C@H]1O [Mupirocin (2% w/w), Mupirocin] | None of the treatments gave them any long term results |  |  |
| Clc1ccccc1C(c1ccccc1)(c1ccccc1)n1ccnc1 [Clotrimazole] | None of the treatments gave them any long term results |  | no permanent improvement |
| CCC(=O)O[C@]1(C(=O)COC(C)=O)CC[C@H]2[C@@H]3C[C@H](C)C4=CC(=O)C=C[C@]4(C)[C@H]3[C@@H](O)C[C@@]21C [Methylprednisolone aceponate] |  |  | no permanent improvement |
| CN(C/C=C/C#CC(C)(C)C)Cc1cccc2ccccc12 [Terbinafine Hydrochloride 1.0%, Terbinafine Hydrochloride] | None of the treatments gave them any long term results | no long term improvement | no permanent improvement |
| CC(=O)OCC(=O)[C@@]1(O)CC[C@H]2[C@@H]3CCC4=CC(=O)CC[C@]4(C)[C@H]3[C@@H](O)C[C@@]21C [Hydrocosrtisone acetate 1%, Hydrocosrtisone acetate] |  | no long term improvement | no permanent improvement |
| CCC(=O)OCC(=O)[C@@]1(OC(=O)CC)[C@@H](C)C[C@H]2[C@@H]3CCC4=CC(=O)C=C[C@]4(C)[C@@]3(F)[C@@H](O)C[C@@]21C [Betamethasone dipropionate 0.05%, Betamethasone dipropionate] |  |  | no permanent improvement |
